The nature of series [1]: Blood-brain barrier permeability assay in mice (brain concentration after intragastric administration). The class given is in vivo. The settings on record: 5 mg/kg, brain tissue homogenate. The protocol: Administration Dosage of 5 mg/kg
The drug was prepared in proportion (solvent: 5% DMSO+5% Solutol+90% normal saline) to make a solution with a concentration of 0.5 mg/mL, and the mice were subjected to intragastric administration at 0.1 mL/10 g, with 3 mice per group in parallel.
After the mice were administered, the mice were anesthetized and perfused with normal saline through the heart, dissected to collect the brain tissue. The brain tissue was washed with normal saline, dried, weighed, and transferred to a 2 mL EP tube, added with normal saline according to brain tissue: normal saline=1:1 (g/mL). 3 steel balls were put in each tube on a tissue grinder, and the tissue mixture was homogenized at 60 HZ for 60 s, centrifuged at 15000 rpm at 4° C. for 10 minutes, and the supernatant was taken, which was the brain tissue homogenate.
The drug stock solution (0.5 mg/mL) was taken and diluted with acetonitrile to form standard curve working solutions with concentrations of 50, 100, 200, 500, 1000, 2000, 5000, 10000, and 20000 ng/mL, and quality control working solutions with concentrations of 100, 2000, and 10000 ng/mL. 47.5 μL of blank matrix was taken respectively, and 2.5 μL of standard curve working solution and 2.5 μL of quality control working solution were added thereto to prepare standard curve samples with concentrations of 2.5, 5, 10, 25, 50, 100, 250, 500, and 1000 ng/mL and quality control samples with concentrations of 5, 100, and 500 ng/mL. 200 μL of acetonitrile (containing the internal standard of 5 ng/mL of Loratadine) was added thereto respectively, subjected to vortex oscillation for 3 minutes, centrifuged at 15,000 rpm and 4° C. for 10 minutes, and the supernatant was taken and analyzed by LC-MS/MS to obtain a standard curve.
50 μL of brain tissue homogenate sample was taken, added with 200 μL of acetonitrile (containing the internal standard of 5 ng/mL of Loratadine), subjected to vortex oscillation for 3 minutes, centrifuged at 15,000 rpm and 4° C. for 10 minutes, and the supernatant was taken for LC-MS/MS analysis. The standard curve was combined with the analysis to obtain the corresponding concentrations in the brain.

In series [2] the target is T1, KCNQ2/3 potassium ion channel (Homo sapiens, UniProt O43525+O43526).
T1 construct: expressed in transfected cells; host or cells: CHO cells (hKCNQ-CHO)
The series can be described thus: KCNQ2/3 potassium ion channel activation assay (whole-cell patch clamp, hKCNQ-CHO cells). The class given is cell-based. The note with it: for activation at 0.05 µM: test concentration 0.05 μM; for activation at 0.05 µM / activation at 3 µM: read-out: Enhancment % (current enhancement multiple). The protocol: Example 64: KCNQ2/3 Potassium Ion Channel Activation Assay
(§1) hKCNQ-CHO cells were cultured at 37° C. in a humidified environment of 5% CO2.
• 2.1. Extracellular fluid (mM): NaCl 145, KCl 4, CaCl2 2, MgCl2 1, Glucose 10, HEPES 10. The pH value of the extracellular fluid was adjusted to 7.4 with NaOH, and the osmotic pressure was adjusted to about 295 mOsm. • 2.2. Intracellular fluid (mM (mmol/L)): KOH 31.25, KCl 120, EGTA 10, MgCl2 1.75, CaCl2 5.374, HEPES 10, Na-ATP 4. The pH value of the intracellular fluid was adjusted to 7.4 with HCl, and the osmotic pressure was adjusted to about 285 mOsm. • 2.3. The extracellular fluid should be prepared once a week, and the intracellular fluid should be stored at −20° C. after preparation.
(§2) The model positive reference compound Retigabine (RTG) was dissolved with 100% DMSO and configured as a 10 mM working solution. The test compounds were dissolved with 100% DMSO and configured as a 10 mM working solution. The final concentration of DMSO in the test solution should be less than 0.3%.
(§3) Whole-cell patch clamp was performed at room temperature. The electrical signals recorded with the EPC 10 USB amplifier (HEKA Elektronik, Germany) were filtered by a 3 kHz low-pass filter, and finally recorded in PatchMaster 2×90.5 software (HEKA Elektronik, Germany). At this step, the quality control standard was that the cell high-resistance sealing was greater than 500 MOhms, and the detection current was greater than 0.4 nA.
(§4) The recording electrodes were pulled out and polished with a vertical puller (NARISHIGE PC-10, Japan) using a borosilicate glass capillary (GC150tF-10, Harvard Apparatus Co., UK). At this step, the quality control standard was that the electrode resistance was between 2 MΩ and 5 MΩ.
(§5) During the recording process of the whole-cell patch clamp, a continuous perfusion system (BT100-2J, LongerPump, China) was used to continuously perfuse the extracellular fluid. The perfusion system was installed on the stage of an upright microscope (FN-S2N, Nikon, Japan), and the perfusion head was manually positioned under the microscope.
The voltage command for detecting the amplitude of hKCNQ current was as follows: the cell stepped from the clamping potential of −80 mV to −30 mV, and held for 1500 ms; and then the clamping voltage was lowered to −120 my and held for 500 ms; finally, the voltage returned to the clamping potential of −80 mV. The detection voltage command was repeated every 15,000 milliseconds, and the command was continuously executed during the compound test. The quality control standard for compound action stability was the current amplitude under 5 consecutive voltage commands, and the coefficient of variation of the current amplitude was <5%.
Data analysis was performed using PatchMaster 2×90.5 software (HEKA Elektronik, Germany) and Excel 2013 (Microsoft, USA) software. For each cell's patch clamp recording, the amplitude of the hKCNQ channel current (Itest) corresponding to the test compound concentration should be obtained. The enhanced channel current was obtained by subtracting the cell's original channel current (Icontrol) from Itest and dividing by Icontrol to obtain the current enhancement multiple. That is, the current enhancement multiple (Enhancment %)=(Itest −Icontrol)/Icontrol[…].
(Patch clamp records ionic current or voltage across a cell membrane.)

The subject of series [3] is MES-induced epilepsy in mice. The series can be described thus: MES mouse epilepsy model. In kind it is in vivo. The note with it: 5 mpk, electrical stimulation 30 minutes after administration. The method, then: Example 67: MES Mouse Epilepsy Model
• 1. The mice (10 mice per group) were transferred to the operating room to adapt to the environment 30 minutes before the experiment. • 2. The mice were administered the test compounds or positive drug (Valproate) at a specific time point. 30 minutes after the administration of Valproate or 30 minutes after the administration of the test compounds, electrical stimulation was given with ear electrodes. The stimulation parameters were a square wave with a total duration of 0.8 seconds, a frequency of 50 Hz, and an amplitude of 50 mA with an interval of 10 msec. • 3. The number and duration of hind limb tonic extension of the animal within 1 minute after the completion of the electrical stimulation was recorded, and the possible death and time of death were also recorded. • 4. After administration, the possible side effects induced by the drug were observed and recorded, and the side effects are divided into four levels: • None: Normal • Mild sedation • Moderate sedation • Severe sedation

For series [4], the target named is T2, KCNQ2/3 (Homo sapiens, UniProt O43525+O43526).
T2 construct: expressed in transfected cells; host or cells: CHO cells (hKCNQ-CHO)
The series can be described thus: Half-maximal activation voltage left shift assay (whole-cell patch clamp, hKCNQ-CHO cells). In kind it is cell-based. The protocol: Example 65: Half-Maximal Activation Voltage Left Shift Assay
as §1
• a) Extracellular fluid (mM): NaCl 145, KCl 4, CaCl2 2, MgCl2 1, Glucose 10, HEPES 10. The pH value of the extracellular fluid was adjusted to 7.4 with NaOH, and the osmotic pressure was adjusted to about 295 mOsm. • b) Intracellular fluid (mM): KOH 31.25, KCl 120, EGTA 10, MgCl2 1.75, CaCl2 5.374, HEPES 10, Na-ATP 4. The pH value of the intracellular fluid was adjusted to 7.4 with HCl, and the osmotic pressure was adjusted to about 285 mOsm. • c) The extracellular fluid should be prepared once a week, and the intracellular fluid should be aliquoted and stored at −20° C. after preparation.
as §2, §3, §4, §5
The voltage command for detecting the amplitude of hKCNQ current was as follows: the cell was clamped from a potential of −80 mV, stepped to −120 mV, and then clamped continuously at increasing voltages of 10 mV per sweep until +60 mV, held for 1500 ms; and then the clamping voltage was lowered to −120 my and held for 500 ms; finally, the voltage returned to the clamping potential of −80 mV. The detection voltage command was repeated every 15,000 milliseconds, and the command was continuously executed during the compound test. The half-maximal voltage of the cell's hKCNQ was obtained by nonlinear fitting of the current amplitude at different clamping potentials (−120 mV to +60 mV).
Data analysis was performed using PatchMaster 2×90.5 software (HEKA Elektronik, Germany) and Excel 2013 (Microsoft, USA) software. For each cell's patch clamp recording, the half-maximal voltage (V½-test) of hKCNQ corresponding to the test compound concentration should be obtained. The left-shifted half-maximal voltage value ΔV½ (V1/2 Shift (mV)) was obtained by subtracting the half-maximal voltage of hKCNQ before compound action (V½-control) from V½-test.

Experimental findings from patent US20240317689A1, “POTASSIUM CHANNEL MODULATOR, COMPOSITION AND APPLICATION” (NEUSHEN THERAPEUTICS (SHANGHAI) CO., LTD, priority 2021, published 2024) are described below.

Consider `Cc1cc(N2CCCc3cc(OC(C)C)ccc3C2)cc(C)c1NC(=O)CC(C)(C)C` [Compound 003, N-(4-(7-isopropoxy-1,3,4,5-tetrahydro-2H-benzo[c]azepin-2-yl)-2,6-dimethylphenyl)-3,3-dimethylbutanamide], for which the “Concentrations in the brain” value in series [1] was 127.5 ng/g. For the same compound, in series [2], the activation at 0.05 µM is under 50%. Also, in series [2] (test concentration 3 μM), the activation at 3 µM was 50 to 100%. Besides, the “Protection rate for tonic extension” value in series [3] is 100%. The “V1/2 Shift (mV)” value in series [4] (test concentration 50 nM) is recorded as −7.00 mV; in series [4] (test concentration 300 nM) it was −36.06 mV.

Take `CCC(C)Oc1ccc2c(c1)CCCN(c1cc(C)c(NC(=O)CC(C)(C)C)c(C)c1)C2` (stereo not drawn) [Compound 004, N-(4-(7-(sec-butoxy)-1,3,4,5-tetrahydro-2H-benzo[c]azepin-2-yl)-2,6-dimethylphenyl)-3,3-dimethylbutanamide]: in series [2], the activation at 0.05 µM is under 50%. For the same compound, the activation at 3 µM in series [2] (test concentration 3 μM) was over 100%. For the same compound, the “V1/2 Shift (mV)” value was −11.76 mV in series [4] (test concentration 50 nM) and −23.56 mV in series [4] (test concentration 300 nM).

For `Cc1cc(N2CCCc3cc(OC4CCCC4)ccc3C2)cc(C)c1NC(=O)CC(C)(C)C` [Compound 011, N-(4-(7-(cyclopentyloxy)-1,3,4,5-tetrahydro-2H-benzo[c]azepin-2-yl)-2,6-dimethylphenyl)-3,3-dimethylbutanamide], the activation at 0.05 µM in series [2] was over 100%. Also, in series [2] (test concentration 3 μM), the activation at 3 µM is over 100%. In addition, the “Protection rate for tonic extension” value in series [3] came to 90%. Moreover, the “V1/2 Shift (mV)” value in series [4] (test concentration 50 nM) was −2.92 mV; in series [4] (test concentration 300 nM) it was −21.98 mV.

For `Cc1cc(N2CCCc3cc(O[C@H](C)C(F)(F)F)ccc3C2)cc(C)c1NC(=O)CC(C)(C)C` [Compound 032, (R)—N-(2,6-dimethyl-4-(7-((1,1,1-trifluoropropan-2-yl)oxy)-1,3,4,5-tetrahydro-2H-benzo[c]azepin-2-yl)phenyl)-3,3-dimethylbutanamide], in series [2], the activation at 0.05 µM was 50 to 100%. Moreover, the activation at 3 µM in series [2] (test concentration 3 μM) was over 100%. Moreover, in series [3], the “Protection rate for tonic extension” value is 100%. In addition, in series [4] (test concentration 50 nM), the “V1/2 Shift (mV)” value is −17.59 mV.

With `Cc1cc(N2CCCc3cc(O[C@@H](C)C(F)(F)F)ccc3C2)cc(C)c1NC(=O)CC(C)(C)C` [Compound 033, (S)—N-(2,6-dimethyl-4-(7-((1,1,1-trifluoropropan-2-yl)oxy)-1,3,4,5-tetrahydro-2H-benzo[c]azepin-2-yl)phenyl)-3,3-dimethylbutanamide], the activation at 3 µM in series [2] (test concentration 3 μM) lay within 50 to 100%. For the same compound, the “Protection rate for tonic extension” value in series [3] stood at 100%. Also, the “V1/2 Shift (mV)” value in series [4] (test concentration 50 nM) is given as −44.25 mV.

As to `Cc1cc(N2CCCc3cc(OCCCC(F)(F)F)ccc3C2)cc(C)c1NC(=O)CC(C)(C)C` [Compound 060, N-(2,6-dimethyl-4-(7-(4,4,4-trifluorobutoxy)-1,3,4,5-tetrahydro-2H-benzo[c]azepin-2-yl)phenyl)-3,3-dimethylbutanamide], the activation at 3 µM in series [2] (test concentration 3 μM) is over 100%.

Take `Cc1cc(N2CCCc3cc(OCCCC(F)(F)C(F)(F)F)ccc3C2)cc(C)c1NC(=O)CC(C)(C)C` [Compound 061, N-(2,6-dimethyl-4-(7-((4,4,5,5,5-pentafluoropentyl)oxy)-1,3,4,5-tetrahydro-2H-benzo[c]azepin-2-yl)phenyl)-3,3-dimethylbutanamide]: the activation at 3 µM in series [2] (test concentration 3 μM) is over 100%.

As for `Cc1cc(N2CCCc3cc(OCC(F)(F)CC(F)(F)F)ccc3C2)cc(C)c1NC(=O)CC(C)(C)C` [Compound 062, N-(2,6-dimethyl-4-(7-(2,2,4,4,4-pentafluorobutoxy)-1,3,4,5-tetrahydro-2H-benzo[c]azepin-2-yl)phenyl)-3,3-dimethylbutanamide], the activation at 3 µM in series [2] (test concentration 3 μM) was over 100%.

In the case of `Cc1cc(N2CCCc3cc(OCCCCF)ccc3C2)cc(C)c1NC(=O)CC(C)(C)C` [Compound 063, N-(4-(7-(4-fluorobutoxy)-1,3,4,5-tetrahydro-2H-benzo[c]azepin-2-yl)-2,6-dimethylphenyl)-3,3-dimethylbutanamide], the activation at 3 µM in series [2] (test concentration 3 μM) was over 100%.

Take `Cc1cc(N2CCc3cc(F)ccc3C2)cc(C)c1NC(=O)CC(C)(C)C` [Xen-1101, reference compound]: the “Concentrations in the brain” value in series [1] is 90.9 ng/g. Further, the “V1/2 Shift (mV)” value in series [4] (test concentration 50 nM) is −5.48 mV; in series [4] (test concentration 300 nM) it was −13.33 mV.

Turning to `Cc1cc(N2CCCc3cc(F)ccc3C2)cc(C)c1NC(=O)CC(C)(C)C` [a, reference compound], the “Enhancment % (activation activity on KCNQ2/3 potassium ion channel)” value in series [2] (test concentration 3 μM, numeric value) was found to be 41.39%.
